One assay has as its target SARS-CoV-2 3CLpro (Severe acute respiratory syndrome coronavirus 2, UniProt P0DTD1). Briefly: biochemical.
In the next assay the target is MERS-CoV 3CLpro (Middle East respiratory syndrome-related coronavirus, UniProt K9N7C7). Briefly: biochemical.
For another assay, the target named is HCoV-229E 3CLpro (Human coronavirus 229E, UniProt P0C6X1). Briefly: HCoV-229E 3CLpro inhibition assay (FRET). The class given is biochemical.
The next assay concerns the target SARS-CoV 3CLpro (Severe acute respiratory syndrome coronavirus, UniProt P0C6X7). The assay is described as follows: biochemical.

Chain of MERS-CoV 3CLpro (K9N7C7 3248-3553): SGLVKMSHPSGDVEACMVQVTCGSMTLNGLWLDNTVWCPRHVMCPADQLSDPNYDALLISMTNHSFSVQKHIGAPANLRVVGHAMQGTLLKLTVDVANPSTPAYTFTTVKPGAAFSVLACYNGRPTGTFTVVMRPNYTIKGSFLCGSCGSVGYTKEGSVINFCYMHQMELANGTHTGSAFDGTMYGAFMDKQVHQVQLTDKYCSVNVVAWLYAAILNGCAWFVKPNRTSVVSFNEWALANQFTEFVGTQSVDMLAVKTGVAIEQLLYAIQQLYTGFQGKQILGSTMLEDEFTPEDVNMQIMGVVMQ
Chain of HCoV-229E 3CLpro (P0C6X1 2966-3267): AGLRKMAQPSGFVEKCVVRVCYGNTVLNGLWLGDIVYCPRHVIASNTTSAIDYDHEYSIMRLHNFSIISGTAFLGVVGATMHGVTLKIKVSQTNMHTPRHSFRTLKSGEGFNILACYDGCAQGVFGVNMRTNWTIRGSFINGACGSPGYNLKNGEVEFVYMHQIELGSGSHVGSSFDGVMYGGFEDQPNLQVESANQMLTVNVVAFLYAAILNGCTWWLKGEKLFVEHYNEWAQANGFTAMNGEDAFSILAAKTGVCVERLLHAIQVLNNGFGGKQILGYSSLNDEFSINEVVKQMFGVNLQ

As to `CC(C)(C)[C@H](NC(=O)[C@@H]1CC1(F)F)C(=O)N1C[C@@H]2CCC[C@@H]2[C@H]1C(=O)NN(C[C@@H]1CCCNC1=O)C(=O)[C@H](F)Cl` [Example 196, (1S)—N-[(1S)-1-[(3S,3aS,6aR)-3-[[[(2R)-2-chloro-2-fluoro-acetyl]-[[(3S)-2-oxo-3-piperidyl]methyl]amino]carbamoyl]-3,3a,4,5,6,6a-hexahydro-1H-cyclopenta[c]pyrrole-2-carbonyl]-2,2-dimethyl-propyl]-2,2-difluoro-cyclopropanecarboxamide], the IC50 (as a rule, the concentration needed to halve the response being measured) against SARS-CoV-2 3CLpro turned out to be 11 nM; on MERS-CoV 3CLpro, 89 nM; against HCoV-229E 3CLpro, 38 nM; at SARS-CoV 3CLpro it was 14 nM.
For `CC(C)(C)[C@H](NC(=O)[C@@H]1CC1(F)F)C(=O)N1C[C@@H]2CCC[C@@H]2[C@H]1C(=O)NN(C[C@@H]1CCCNC1=O)C(=O)[C@@H](F)Cl` [Example 197, (1S)—N-[(1S)-1-[(3S,3aS,6aR)-3-[[[(2S)-2-chloro-2-fluoro-acetyl]-[[(3S)-2-oxo-3-piperidyl]methyl]amino]carbamoyl]-3,3a,4,5,6,6a-hexahydro-1H-cyclopenta[c]pyrrole-2-carbonyl]-2,2-dimethyl-propyl]-2,2-difluoro-cyclopropanecarboxamide] the same measures were 11 nM, 94 nM, 65 nM and 13 nM.

The values are drawn from US20250059171A1 (Hoffmann-La Roche Inc., priority 2021, published 2025).
